Data reported in ChEMBL document CHEMBL4368924, “Synthesis and biological evaluation of nitroxide labeled pyrimidines as Aurora kinase inhibitors” (Bioorg Med Chem Lett, 2019).
Active and inactive are the calls of the source. No cut-off for these calls is given here.

What was measured:
[1] = test system: A549; test: Antiproliferative activity against human A549 cells after 48 hrs by MTT assay; format: functional, cell-based
[2] = test system: LoVo; test: Antiproliferative activity against human LoVo cells after 48 hrs by MTT assay; format: functional, cell-based
[3] = test system: HepG2; test: Antiproliferative activity against human HepG2 cells after 48 hrs by MTT assay; format: functional, cell-based
[4] = test system: HeLa; test: Antiproliferative activity against human HeLa cells after 48 hrs by MTT assay; format: functional, cell-based
[5] = target: T1, Aurora kinase A (Homo sapiens) (UniProt O14965); test: Inhibition of aurora A phosphorylation at Thr288 residues in human HeLa cells after 24 hrs by immunofluorescence assay; format: cell-based
T1 sequence (whole entry): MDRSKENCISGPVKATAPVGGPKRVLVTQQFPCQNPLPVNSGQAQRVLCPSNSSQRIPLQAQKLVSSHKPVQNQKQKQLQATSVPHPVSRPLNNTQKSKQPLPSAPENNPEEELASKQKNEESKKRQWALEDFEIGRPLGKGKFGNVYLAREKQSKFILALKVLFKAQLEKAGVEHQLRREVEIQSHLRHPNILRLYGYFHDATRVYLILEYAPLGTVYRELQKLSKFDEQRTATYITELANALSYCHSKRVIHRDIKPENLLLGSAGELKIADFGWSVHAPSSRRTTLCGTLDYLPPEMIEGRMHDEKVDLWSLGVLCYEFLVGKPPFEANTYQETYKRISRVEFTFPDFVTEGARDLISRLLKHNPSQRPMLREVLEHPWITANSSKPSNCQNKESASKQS

[6] = target: Activin receptor type-1-like (Homo sapiens) (UniProt P37023); test: Inhibition of ALK1 (unknown origin) using Kemptide as substrate at 1 uM after 60 mins by ADP-Glo luminescence assay relative to control
Activin receptor type-1-like (Homo sapiens), sequence (P37023 whole entry): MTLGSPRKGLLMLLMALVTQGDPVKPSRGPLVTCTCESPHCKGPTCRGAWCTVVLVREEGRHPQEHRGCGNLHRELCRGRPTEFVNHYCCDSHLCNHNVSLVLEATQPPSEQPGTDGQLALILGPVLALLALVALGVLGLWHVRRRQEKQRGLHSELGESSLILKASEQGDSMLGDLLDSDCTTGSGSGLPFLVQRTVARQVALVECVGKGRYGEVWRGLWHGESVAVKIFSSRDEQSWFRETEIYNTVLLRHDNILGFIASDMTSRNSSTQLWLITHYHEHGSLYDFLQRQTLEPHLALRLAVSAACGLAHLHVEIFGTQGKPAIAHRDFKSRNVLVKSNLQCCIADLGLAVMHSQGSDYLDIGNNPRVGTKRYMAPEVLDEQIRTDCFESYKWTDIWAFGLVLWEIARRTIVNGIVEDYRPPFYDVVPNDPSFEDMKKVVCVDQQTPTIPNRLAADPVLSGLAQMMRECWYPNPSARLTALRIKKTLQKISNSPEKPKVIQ

[7] = species: Homo sapiens; test: Inhibition of PI3K (unknown origin) using Kemptide as substrate at 1 uM after 60 mins by ADP-Glo luminescence assay relative to control
[8] = target: Vascular endothelial growth factor receptor 2 (Homo sapiens) (UniProt P35968); test: Inhibition of VEGFR2 (unknown origin) using Kemptide as substrate at 1 uM after 60 mins by ADP-Glo luminescence assay relative to control
Vascular endothelial growth factor receptor 2 (Homo sapiens), sequence (P35968 whole entry): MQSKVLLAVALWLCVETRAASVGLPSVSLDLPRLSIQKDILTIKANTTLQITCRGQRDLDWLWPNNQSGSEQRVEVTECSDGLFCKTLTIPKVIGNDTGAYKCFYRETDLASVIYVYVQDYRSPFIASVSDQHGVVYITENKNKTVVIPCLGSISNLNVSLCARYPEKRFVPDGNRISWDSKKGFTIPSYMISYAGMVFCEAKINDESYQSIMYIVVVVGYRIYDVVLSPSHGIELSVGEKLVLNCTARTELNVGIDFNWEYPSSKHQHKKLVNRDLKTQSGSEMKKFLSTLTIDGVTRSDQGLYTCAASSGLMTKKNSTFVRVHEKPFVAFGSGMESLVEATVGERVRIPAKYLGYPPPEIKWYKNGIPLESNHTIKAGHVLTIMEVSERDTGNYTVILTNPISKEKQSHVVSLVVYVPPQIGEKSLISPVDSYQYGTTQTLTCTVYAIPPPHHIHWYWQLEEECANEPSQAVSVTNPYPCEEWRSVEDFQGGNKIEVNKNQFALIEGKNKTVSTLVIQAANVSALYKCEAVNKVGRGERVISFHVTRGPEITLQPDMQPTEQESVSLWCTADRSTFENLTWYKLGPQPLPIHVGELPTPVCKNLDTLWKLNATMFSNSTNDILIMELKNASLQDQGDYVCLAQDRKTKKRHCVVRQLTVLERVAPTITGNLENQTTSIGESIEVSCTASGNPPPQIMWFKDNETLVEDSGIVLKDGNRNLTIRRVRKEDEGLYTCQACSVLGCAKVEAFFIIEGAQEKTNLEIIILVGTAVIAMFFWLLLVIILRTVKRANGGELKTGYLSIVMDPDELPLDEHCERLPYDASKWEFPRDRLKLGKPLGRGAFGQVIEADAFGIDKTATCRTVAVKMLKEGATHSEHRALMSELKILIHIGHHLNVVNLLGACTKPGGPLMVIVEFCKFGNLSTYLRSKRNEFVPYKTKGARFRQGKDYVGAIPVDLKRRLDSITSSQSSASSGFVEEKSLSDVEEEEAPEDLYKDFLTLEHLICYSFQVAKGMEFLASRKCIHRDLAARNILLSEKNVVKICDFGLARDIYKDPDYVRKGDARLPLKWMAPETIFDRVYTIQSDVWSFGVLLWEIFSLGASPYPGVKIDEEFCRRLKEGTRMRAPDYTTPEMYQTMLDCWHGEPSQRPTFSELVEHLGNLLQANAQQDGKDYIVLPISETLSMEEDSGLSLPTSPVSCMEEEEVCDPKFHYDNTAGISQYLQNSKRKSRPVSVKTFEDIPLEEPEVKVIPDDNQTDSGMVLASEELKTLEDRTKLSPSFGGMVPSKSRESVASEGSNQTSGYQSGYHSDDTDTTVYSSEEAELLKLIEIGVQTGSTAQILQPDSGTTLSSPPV

[9] = target: T2, Aurora kinase A (Homo sapiens, UniProt O14965); test: Inhibition of aurora A (unknown origin) using Kemptide as substrate after 60 mins by ADP-Glo luminescence assay
T2 sequence (O14965 whole entry): T1 sequence (whole entry)

[10] = target: T1, Aurora kinase A (Homo sapiens); test: Inhibition of aurora A in human HeLa cells assessed as decrease in Eg5 level after 24 hrs by Western blot analysis; format: cell-based
[11] = test system: HeLa; test: Induction of morphological changes in human HeLa cells assessed as disrupting mitotic spindle formation at 5 uM after 24 hrs by DAPI-staining based immunofluorescence assay; format: functional, cell-based
[12] = target: T3, Aurora kinase B (Homo sapiens, UniProt Q96GD4); test: Inhibition of aurora B (unknown origin) using Kemptide as substrate after 60 mins by ADP-Glo luminescence assay
T3 sequence (Q96GD4 whole entry): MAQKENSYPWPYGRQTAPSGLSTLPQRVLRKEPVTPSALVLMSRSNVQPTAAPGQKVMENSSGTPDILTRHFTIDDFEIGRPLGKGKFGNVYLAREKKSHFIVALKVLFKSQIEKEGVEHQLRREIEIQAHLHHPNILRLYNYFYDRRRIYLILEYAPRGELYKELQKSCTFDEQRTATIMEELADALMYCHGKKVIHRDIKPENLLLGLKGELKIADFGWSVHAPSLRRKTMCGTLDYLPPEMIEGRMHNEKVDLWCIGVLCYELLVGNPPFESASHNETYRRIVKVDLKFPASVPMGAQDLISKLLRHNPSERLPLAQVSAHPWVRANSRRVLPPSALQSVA

[13] = target: T1, Aurora kinase A (Homo sapiens); test: Inhibition of aurora A in human HeLa cells assessed as decrease in TPX2 level after 24 hrs by Western blot analysis; format: cell-based
[14] = target: T3, Aurora kinase B; test: Inhibition of aurora B in human HeLa cells assessed as decrease in HisH3 phosphorylation at ser10 residues after 24 hrs by Western blot analysis; format: cell-based
[15] = target: T1, Aurora kinase A (Homo sapiens); test: Inhibition of aurora A in human HeLa cells assessed as decrease in Bora level after 24 hrs by Western blot analysis; format: cell-based
[16] = target: T3, Aurora kinase B; test: Inhibition of aurora B (unknown origin) using Kemptide as substrate at 1 uM after 60 mins by ADP-Glo luminescence assay relative to control
[17] = target: T3, Aurora kinase B; test: Inhibition of aurora B phosphorylation at Thr232 residues in human HeLa cells after 24 hrs by immunofluorescence assay; format: cell-based
[18] = target: RAC-alpha serine/threonine-protein kinase (Homo sapiens) (UniProt P31749); test: Inhibition of AKT (unknown origin) using Kemptide as substrate at 1 uM after 60 mins by ADP-Glo luminescence assay relative to control
RAC-alpha serine/threonine-protein kinase (Homo sapiens), sequence (P31749 whole entry): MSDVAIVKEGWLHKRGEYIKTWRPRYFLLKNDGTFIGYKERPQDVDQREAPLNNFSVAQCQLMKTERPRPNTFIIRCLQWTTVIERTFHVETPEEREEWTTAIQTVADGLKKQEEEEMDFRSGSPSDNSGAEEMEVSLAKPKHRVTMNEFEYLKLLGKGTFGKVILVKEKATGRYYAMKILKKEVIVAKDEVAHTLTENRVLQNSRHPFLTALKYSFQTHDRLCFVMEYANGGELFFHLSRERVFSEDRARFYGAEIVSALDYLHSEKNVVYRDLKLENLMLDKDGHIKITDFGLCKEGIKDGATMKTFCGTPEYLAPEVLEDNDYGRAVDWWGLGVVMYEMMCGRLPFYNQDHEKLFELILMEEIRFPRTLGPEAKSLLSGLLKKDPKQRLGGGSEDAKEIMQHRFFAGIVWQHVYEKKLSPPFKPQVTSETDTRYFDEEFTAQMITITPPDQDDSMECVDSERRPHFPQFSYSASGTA

[19] = target: T1, Aurora kinase A (Homo sapiens); test: Inhibition of aurora A (unknown origin) using Kemptide as substrate at 1 uM after 60 mins by ADP-Glo luminescence assay relative to control

SMILES | IC50 ([1]; a549) [µM] | IC50 ([2]; lovo) [µM] | IC50 ([3]; hepg2) [µM] | IC50 ([4]; hela) [µM] | other results
Cc1cc(Nc2nc(Nc3ccc(C(=O)NC4CC(C)(C)N([O])C(C)(C)C4)cc3)ncc2[N+](=O)[O-])n[nH]1 | 15.3 | > 100 | 37.5 | 29.1 | 
Cc1cc(Nc2nc(Nc3ccc(C(=O)NC4CC(C)(C)N([O])C(C)(C)C4)cc3)ncc2F)n[nH]1 | 2.12 | 42.2 | 10.8 | 11.2 | 
CCCCOC(=O)Cc1cc(Nc2nc(Nc3ccc(C(=O)NC4CC(C)(C)N([O])C(C)(C)C4)cc3)ncc2F)n[nH]1 |  |  |  |  | inhibition [5]: Dose-dependent effect; inhibition [6]: 33.5%; inhibition [7]: 7%; inhibition [8]: 35.5%; IC50 [9]: 0.0093 µM; IC50 ([1]; Homo sapiens, A549, 48 h): 0.89 µM; inhibition [10]: Dose-dependent effect; Activity [11]: Active; IC50 ([2]; Homo sapiens, LoVo, 48 h): 11.4 µM; IC50 ([3]; Homo sapiens, HepG2, 48 h): 5.73 µM; IC50 [12]: 0.0028 µM; inhibition [13]: Dose-dependent effect; inhibition [14]: Dose-dependent effect; inhibition [15]: Dose-dependent effect; inhibition [16]: 90.5%; inhibition [17]: Dose-dependent effect; IC50 ([4]; Homo sapiens, HeLa, 48 h): 2.72 µM; inhibition [18]: 0%; inhibition [19]: 84.5%
CC1(C)CC(NC(=O)c2ccc(Nc3ncc(F)c(N4CCOCC4)n3)cc2)CC(C)(C)N1[O] | 13.2 | 35.5 | 22.6 | 14.3 | 
CC1(C)CC(NC(=O)c2ccc(Nc3ncc(F)c(NCCCNc4ccc([N+](=O)[O-])cc4)n3)cc2)CC(C)(C)N1[O] | 12.4 | 53.6 | 19.8 | 31.7 | 
CCN1CCN(c2nc(Nc3ccc(C(=O)NC4CC(C)(C)N([O])C(C)(C)C4)cc3)ncc2[N+](=O)[O-])CC1 | 1.96 | 39.7 | 56.8 | 17.5 | 
CC(C)OC(=O)Cc1csc(Nc2nc(Nc3ccc(C(=O)NC4CC(C)(C)N([O])C(C)(C)C4)cc3)ncc2F)n1 | 3.42 | 11.9 | 13.4 | 11.2 | 
CCOC(=O)c1csc(Nc2nc(Nc3ccc(C(=O)NC4CC(C)(C)N([O])C(C)(C)C4)cc3)ncc2[N+](=O)[O-])n1 | 0.74 | 12.5 | 6.87 | 3.79 | 
CC1(C)CC(NC(=O)c2ccc(Nc3ncc([N+](=O)[O-])c(N4CCN(c5ccc(F)cc5)CC4)n3)cc2)CC(C)(C)N1[O] | 10.2 | 27.8 | 13.1 | 25.3 | 
Cc1cc(Nc2nc(Nc3ccc(C(=O)NC4CC(C)(C)N([O])C(C)(C)C4)cc3)ncc2F)no1 |  |  |  |  | inhibition [6]: 39%; inhibition [7]: 18%; inhibition [8]: 57%; IC50 [9]: 0.0201 µM; IC50 ([1]; Homo sapiens, A549, 48 h): 0.88 µM; IC50 ([2]; Homo sapiens, LoVo, 48 h): 12 µM; IC50 ([3]; Homo sapiens, HepG2, 48 h): 10.8 µM; IC50 [12]: 0.0173 µM; inhibition [16]: 76.5%; IC50 ([4]; Homo sapiens, HeLa, 48 h): 5.68 µM; inhibition [18]: 0%; inhibition [19]: 69%
CCOC(=O)Cc1csc(Nc2nc(Nc3ccc(C(=O)NC4CC(C)(C)N([O])C(C)(C)C4)cc3)ncc2[N+](=O)[O-])n1 | 1.04 | 27 | 26.4 | 12 | 
CCCCOC(=O)Cc1csc(Nc2nc(Nc3ccc(C(=O)NC4CC(C)(C)N([O])C(C)(C)C4)cc3)ncc2F)n1 | 2.31 | 21.9 | 11.5 | 5.23 | 
CC1(C)CC(NC(=O)c2ccc(Nc3ncc([N+](=O)[O-])c(NC4CCCC4)n3)cc2)CC(C)(C)N1[O] | 33.2 | 41.2 | 28.7 | 55.6 | 
Cc1cc(Nc2cc(N3CCN(C)CC3)nc(Sc3ccc(NC(=O)C4CC4)cc3)n2)n[nH]1 [TOZASERTIB] |  |  |  |  | IC50 ([1]; Homo sapiens, A549, 48 h): 35.8 µM; IC50 ([2]; Homo sapiens, LoVo, 48 h): 45.3 µM; IC50 ([3]; Homo sapiens, HepG2, 48 h): 53.3 µM; IC50 ([4]; Homo sapiens, HeLa, 48 h): 46.2 µM
Cc1cc(Nc2nc(Nc3ccc(C(=O)NC4CC(C)(C)N([O])C(C)(C)C4)cc3)ncc2[N+](=O)[O-])no1 | 1.14 | 26.8 | 7.36 | 7.36 | 
